These are literature values, as cited in patent publication US5613958A, “Transdermal delivery systems for the modulated administration of drugs” (PP Holdings Inc., priority 1995, dated 1997).

Molecules are shown by their SMILES.

The conditions of this series: for accumulation in plasma: during continuous ISDN therapy.

With `O=[N+]([O-])O[C@H]1CO[C@H]2[C@@H]1OC[C@H]2O` [IS-2-MN, isosorbide 2-mononitrate], the accumulation in plasma result is reported as “accumulate in the plasma”.
For the molecule `O=[N+]([O-])O[C@@H]1CO[C@H]2[C@@H]1OC[C@@H]2O` [IS-5-MN, isosorbide 5-mononitrate], the accumulation in plasma result is on record as “accumulate in the plasma”. Besides, the antianginal efficacy entry (dose regimens letting IS-5-MN fall below 100 ng/ml before next dose) is recorded as “continuous antianginal efficacy”. The rate of elimination entry (metabolite of ISDN) is “slowest rate of elimination”.
